# Measured values taken from PMC6105163, “Abaloparatide Exerts Bone Anabolic Effects with Less Stimulation of Bone Resorption-Related Factors: A Comparison with Teriparatide” (Calcified Tissue International, 2018).
# Where two headings read alike, the source gives them in different places.
# Legend:
# [1] = test system: human osteoblastic cell line SaOS-2; assay: cAMP accumulation assay in SaOS-2; assay type: cell-based; conditions: for cAMP accumulation, in words: SaOS-2, 10 min (Fig. 1a), n = 3 replicate wells; for EC50 / Emax, cAMP accumulation: SaOS-2, 10 min, 2 mmol/L 3-isobutyl-1-methylxanthine, mean ± s.e.m., three independent experiments, each triplicate; for EC50: cAMP-Screen System, P = 0.13 ABL vs TPTD; for Emax, cAMP accumulation: P = 0.96 ABL vs TPTD
# Description: (§1) The human osteoblastic cell line SaOS-2 and the rat osteoblastic cell line UMR-106 were purchased from the European Collection of Cell Cultures (Wiltshire, UK). SaOS-2 and UMR-106 were maintained in growth medium (GM): McCoy’s 5A (for SaOS-2) or Dulbecco’s Modified Eagle’s Medium (for UMR-106) supplemented with 10% FBS and 1% penicillin/streptomycin at 37 °C with 5% CO2. To initiate cell differentiation, cells were grown in differentiation medium (DM): GM containing 50 µg/mL ascorbic acid, 10 mmol/L β-glycerophosphate, and 10 nmol/L dexamethasone. The culture medium was exchanged every 6 days or less.
# (§2) Cells were cultured in 96-well plates at a density of 4 × 10^4 cells/well in GM overnight. The medium was replaced with serum-free GM (containing 0.1% BSA instead of 10% FBS) for culture under starvation conditions. Twenty-four hours after the start of starvation, ABL, TPTD, or vehicle (water containing 0.1% BSA) were added to the cells with 2 mmol/L of 3-isobutyl-1-methylxanthine for 10 min. Cells were lysed and accumulated cAMP was measured using the cAMP-Screen System (Applied Biosystems, Waltham, MA, USA) according to the manufacturer’s instructions.
# (§3) All data are expressed as means ± s.e.m. For calculation of EC50 and Emax, 4-parameter logistic curve fitting was performed. Student’s t test was used for two-group comparisons. Dunnett’s or Tukey’s test was used for multiple comparisons. Significance was inferred from P values of < 0.05. All data were analyzed using GraphPad Prism version 6.03 (GraphPad Software, La Jolla, CA, USA).
# OVX rats = assay: Bone formation marker serum P1NP in OVX rats; assay type: in vivo, Sprague–Dawley rats (female); conditions: once daily s.c., day 28, vs OVX, n = 8 or 9
# Excerpt: Ten-week-old female Sprague–Dawley rats were purchased from Charles River Laboratories Japan, Inc. (Kanagawa, Japan) and ovariectomized at 12 weeks old. Thirty-five days after surgery, rats received once daily subcutaneous injection of ABL, TPTD, or vehicle (saline containing 0.1% heat-inactivated rat serum) for 28 days. Day 0 indicates the day when administration was started. On day 26, rats were anesthetized with intraperitoneally administered pentobarbital sodium and the lumbar spine (L4 and L5) BMD was measured with a PIXImus2 (GE Healthcare, Chicago, IL). Blood (collected from the tail vein) and urine samples were obtained on day 28. Prior to collection, rats were fasted for 15–17 h. Rats were euthanized after the blood and urine collection, and the lumbar spine was removed for the measurement of bone strength. All experimental procedures were approved by the Animal Care and Use Committee of Teijin Institute for Bio-Medical Research.
# Serum P1NP concentration was measured with a Rat/Mouse PINP EIA kit (Immunodiagnostic Systems, Boldon, UK). Urine DPD concentration was measured with an Osteolinks DPD kit (Quidel, San Diego, CA, USA). Urine creatinine (Cr) concentration was measured with a 7180 Autoanalyzer (Hitachi High-Technologies Corporation, Tokyo, Japan).
# [2] = test system: rat osteoblastic cell line UMR-106; assay: cAMP accumulation assay in UMR-106; assay type: cell-based; conditions: for cAMP accumulation, in words: UMR-106, 10 min (Fig. 1b), n = 3 replicate wells; for EC50 / Emax, cAMP accumulation: UMR-106, 10 min, 2 mmol/L 3-isobutyl-1-methylxanthine, mean ± s.e.m., three independent experiments, each triplicate; for EC50: P = 0.0067 ABL vs TPTD; for Emax, cAMP accumulation: P = 0.84 ABL vs TPTD
# Description: as §1, §2, §3
# SaOS-2 = assay: Bone formation-related factor gene expression (qRT-PCR); assay type: cell-based, human; conditions: for IGF-1 gene expression / osteocalcin gene expression: 100 nmol/L once daily 11 days, 6-h exposure per 24-h cycle (Fig. 3b), n = 3; for IGF-1 and osteocalcin expression, continuous treatment: data not shown
# Description: SaOS-2 was cultured in 12-well plates at a density of 2 × 10^5 cells/well in DM. Concomitant with the initiation of cell differentiation, cells were treated with 100 nmol/L of ABL and TPTD once daily for 11 days. The peptide exposure was limited to the first 6 h of the 24-h incubation cycle, and the medium was replaced with peptide-free medium for the rest of the cycle after washing with PBS twice.
# Cells were lysed and total RNA was extracted using an RNeasy Mini Kit (Qiagen, Valencia, CA, USA). RNA was reverse-transcribed into cDNA using the SuperScript III First-Strand Synthesis System for RT-PCR (Invitrogen, Carlsbad, CA, USA). Quantitative RT-PCR was performed on a 7500 Real-Time PCR System (Applied Biosystems) using Power SYBR Green PCR Master Mix (Thermo Fisher Scientific, Waltham, MA, USA). The primers used in this study were as follows: 5′-CGATGGTGGATGGCTCATG-3′ (forward) and 5′-ACCAGATGGGATGTCGGTG-3′ (reverse) for RANKL, 5′-[…]-3′ (forward) and 5′-[…]-3′ (reverse) for M-CSF, 5′-[…]-3′ (forward) and 5′-[…]-3′ (reverse) for OPG, 5′-[…]-3′ (forward) and 5′-[…]-3′ (reverse) for IGF1, 5′-[…]-3′ (forward) and 5′-[…]-3′ (reverse) for osteocalcin, 5′-[…]-3′ (forward) and 5′-[…]-3′ (reverse) for DMP1, 5′-[…]-3′ (forward) and 5′-[…]-3′ (reverse) for SOST, 5′-[…]-3′ (forward) and 5′-[…]-3′ (reverse) for DKK1, 5′-GTGAAGGTCGGAGTCAACG-3′ (forward) and 5′-TGAGGTCAATGAAGGGGTC-3′ (reverse) for GAPDH.
# osteocyte-like SaOS-2 = assay: Sclerostin and DKK1 protein secretion (ELISA); assay type: cell-based, human; conditions: 100 nmol/L, transient (Fig. 4d); efficacies of ABL and TPTD not significantly different; n = 3
# Description: SaOS-2 was cultured in 48-well plates at a density of 5 × 10^4 cells/well in DM for 30 days. Cells were treated with ABL and TPTD at a concentration of 100 nmol/L. Six hours after treatment, cells were washed with PBS twice, and cultured with peptide-free or peptide-containing medium for the rest of the experimental period.
# Human Quantikine M-CSF, Sclerostin, and DKK1 ELISA kits (R&D Systems, Minneapolis, MN, USA) were used to quantify M-CSF, sclerostin, and DKK1, respectively, in the cell supernatants according to the manufacturer’s instructions.
# [3] = cited from earlier work
# PTH1R = conditions: ref [22]; cited from earlier work
# Excerpt: It is unclear why ABL stimulates lower expression of bone resorption-related factors than TPTD with transient treatment only. Recently, it was reported that PTH1R has at least two types of active conformations and that the binding conformation selectivity differs between ABL and TPTD [21, 22]. This difference further affects the duration of the downstream signaling. […] We therefore thought that the difference in bone resorption-related factors could arise from the d ...
Substance,"cAMP accumulation, in words [1]",EC50 [1],"Emax, cAMP accumulation [1]","EC50 and Emax of ABL compared with TPTD ([1]; SaOS-2, Table 1)",serum P1NP (OVX rats),"cAMP accumulation, in words [2]",EC50 [2],"Emax, cAMP accumulation [2]",IGF-1 gene expression (SaOS-2),osteocalcin gene expression (SaOS-2),"IGF-1 and osteocalcin effects, ABL vs TPTD (SaOS-2; 100 nmol/L, repeating 6-h exposure cycle, 11 days (Fig. 3b))","IGF-1 and osteocalcin expression, continuous treatment (SaOS-2)",DKK1 protein secretion (osteocyte-like SaOS-2),sclerostin protein secretion (osteocyte-like SaOS-2),"half-life in humans ([3]; human, in vivo, sc)",duration of cAMP production after wash-out of unbound ligand (PTH1R),"half-life in humans ([3]; subcutaneous injection, ref [27], [28])"
"[Glu^22,25, Leu^23,28,31, Aib^29, Lys^26,30] human PTHrP(1–34)–NH2 [Abaloparatide]",dose-dependently increased cAMP,5.1 ± 0.4 nM,21.9 ± 1.4 nmol/L,no significant differences,significantly increased,dose-dependently increased cAMP,0.84 ± 0.03 nM,278.4 ± 20.8 nmol/L,increased,increased,not significantly different,could hardly detect,inhibited,inhibited,approximately an hour or less,transient,
human PTH(1–34) [Teriparatide],dose-dependently increased cAMP,3.9 ± 0.5 nM,22.0 ± 1.5 nmol/L,,significantly increased,dose-dependently increased cAMP,1.18 ± 0.06 nM,271.4 ± 25.0 nmol/L,increased,increased,,could hardly detect,inhibited,inhibited,,sustained after the unbound ligand is washed out,approximately an hour or less
